We go through twelve molecules from ChEMBL document CHEMBL5214931, “Recent advances in combretastatin A-4 codrugs for cancer therapy” (Eur J Med Chem, 2022).

In general, IC50 refers to the concentration that gives 50% inhibition.

In assay [1] the test system is A549. Briefly: Cytotoxicity against human A549 cells assessed as cell growth inhibition measured after 48 hrs by MTT assay. The format is functional, cell-based. The settings on record: A549, 48 h. For orientation: Tetrazolium dyes change colour on reduction, which living cells bring about.
The test system of assay [2] is HepG2. Briefly: Cytotoxicity against human HepG2 cells assessed as cell growth inhibition measured after 48 hrs by MTT assay. The assay is classed as functional, cell-based. The settings on record: HepG2, 48 h.
The subject of assay [3] is HepG2. Briefly: Cytotoxicity against human HepG2 cells assessed as cell growth inhibition. The assay is classed as functional, cell-based.
Assay [4] deals with MGC-803. Kind of assay: Antitumor activity against human MGC-803 cells xenografted in mouse assessed as inhibition of tumor growth at 50 mg/kg, po administered relative to control. The assay is classed as functional. The settings on record: read-out: TGI. (In general: Xenograft models place foreign cells or tissue in a host animal.)
Assay [5] has as its system MGC-803. Briefly: Cytotoxicity against human MGC-803 cells assessed as cell growth inhibition. The assay is classed as functional, cell-based.
Assay [6] relates to A549. Briefly: Cytotoxicity against human A549 cells assessed as cell growth inhibition. The format is functional, cell-based.
For assay [7], the system named is HeLa. Briefly: Cytotoxicity against human HeLa cells assessed as cell growth inhibition. The assay is classed as functional, cell-based.
The subject of assay [8] is MDA-MB-231. Kind of assay: Cytotoxicity against human MDA-MB-231 cells assessed as cell growth inhibition. The format is functional, cell-based.
The subject of assay [9] is PANC-1. Briefly: Cytotoxicity against human PANC-1 cells assessed as cell growth inhibition measured after 72 hrs XTT assay. The assay is classed as functional, cell-based. Particulars: PANC-1, 72 h.
Assay [10] has as its system PC-3. Briefly: Cytotoxicity against human PC-3 cells assessed as cell growth inhibition measured after 72 hrs XTT assay. The assay is classed as functional, cell-based. Particulars: PC-3, 72 h.
The nature of assay [11]: Phototoxicity against rat AY-27 cells assessed as cell growth inhibition incubated for 2 hrs followed by diode laser illumination in presence of HAL by MTT assay relative to control. The assay is classed as functional. Further details: scale not given: the % may be the effect or the level left.
The test system of assay [12] is MCF7. Kind of assay: Cytotoxicity against human MCF7 cells assessed as cell growth inhibition by MTT assay. The format is functional, cell-based.
Assay [13] addresses Estrogen receptor beta (Homo sapiens, UniProt Q92731). Briefly: Inhibition of human recombinant ERbeta expressed in baculovirus expression system measured after 20 mins by fluorescent polarisation Assay.
Assay [14] concerns the target T1, Estrogen receptor (Homo sapiens, UniProt P03372).
T1 sequence (P03372 whole entry): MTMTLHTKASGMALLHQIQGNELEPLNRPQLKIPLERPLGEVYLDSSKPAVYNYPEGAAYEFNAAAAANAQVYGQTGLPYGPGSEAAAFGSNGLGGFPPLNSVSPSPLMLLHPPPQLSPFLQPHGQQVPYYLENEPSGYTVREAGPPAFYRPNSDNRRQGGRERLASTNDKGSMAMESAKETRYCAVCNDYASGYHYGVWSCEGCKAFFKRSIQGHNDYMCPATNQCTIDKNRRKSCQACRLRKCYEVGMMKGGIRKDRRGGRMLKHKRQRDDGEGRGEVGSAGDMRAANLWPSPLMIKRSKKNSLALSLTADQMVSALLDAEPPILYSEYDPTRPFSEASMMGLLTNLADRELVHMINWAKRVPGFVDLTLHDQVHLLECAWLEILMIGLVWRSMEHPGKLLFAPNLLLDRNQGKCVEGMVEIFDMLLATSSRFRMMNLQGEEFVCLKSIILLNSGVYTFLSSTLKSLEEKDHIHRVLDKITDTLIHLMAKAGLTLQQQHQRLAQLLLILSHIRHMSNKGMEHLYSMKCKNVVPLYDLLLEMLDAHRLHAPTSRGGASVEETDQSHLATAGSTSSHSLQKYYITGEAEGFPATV
Kind of assay: Inhibition of human recombinant ERalpha expressed in baculovirus expression system measured after 20 mins by fluorescent polarisation Assay.

Assay [15] has as its system MDA-MB-468. Briefly: Phototoxicity against human MDA-MB-468 cells assessed as cell growth inhibition incubated for 24 hrs followed by LED illumination by MTT assay. The assay is classed as functional, cell-based. Particulars: MDA-MB-468, light or radiation study.

Sequence of Estrogen receptor beta (Q92731 whole entry): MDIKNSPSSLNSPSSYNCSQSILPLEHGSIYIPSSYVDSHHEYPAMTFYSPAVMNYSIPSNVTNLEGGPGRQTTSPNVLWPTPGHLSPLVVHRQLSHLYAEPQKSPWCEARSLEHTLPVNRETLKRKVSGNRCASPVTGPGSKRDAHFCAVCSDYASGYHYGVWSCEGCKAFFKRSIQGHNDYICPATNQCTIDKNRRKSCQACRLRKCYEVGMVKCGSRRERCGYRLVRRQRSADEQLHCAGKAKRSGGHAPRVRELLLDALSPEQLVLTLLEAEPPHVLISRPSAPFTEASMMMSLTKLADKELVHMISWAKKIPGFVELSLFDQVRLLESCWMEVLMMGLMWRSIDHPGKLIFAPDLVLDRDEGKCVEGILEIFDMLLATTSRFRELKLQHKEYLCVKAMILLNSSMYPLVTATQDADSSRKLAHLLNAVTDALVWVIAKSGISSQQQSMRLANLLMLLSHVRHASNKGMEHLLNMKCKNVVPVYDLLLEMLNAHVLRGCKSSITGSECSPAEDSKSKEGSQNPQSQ

For the molecule `COc1ccc(/C=C\c2cc(OC)c(OC)c(OC)c2)cc1OC(=O)C1CC(C)(C)N(O)C1(C)C` (stereo not drawn), the results for the IC50 in assay [1] and in assay [2] were 42 nM and 1830 nM, respectively.
`COc1ccc(/C=C\c2cc(OC)c(OC)c(OC)c2)cc1OC(=O)Cn1cc(F)c(=O)[nH]c1=O`: the half-inhibitory concentration (IC50) in assay [3] was 22.8 nM; in assay [5] it was below 0.3 nM; in [6], below 0.3 nM; in assay [7], 31 nM; in [8] it was 400 nM. Moreover, the inhibition in vivo at 50 mg/kg in assay [4] was found to be 75%.
As for `COc1ccc(/C=C\c2cc(OC)c(OC)c(OC)c2)cc1OC(=O)CCn1cc(F)c(=O)[nH]c1=O`, the IC50 in assay [3] is 7330 nM; in assay [5] it was below 0.3 nM; in [6] it was below 0.3 nM; in assay [7], 30 nM; in assay [8], 80600 nM.
With `CC[C@H](C)[C@H](NC(=O)[C@@H](N)CC(C)C)C(=O)N[C@@H](Cc1ccc(O)cc1)C(=O)N1CCC[C@H]1C(=O)N[C@@H](CCCNC(=N)N)C(=O)N[C@@H](CCCNC(=N)N)C(=O)NCCCCCC(NC(=O)[C@@H](CCCNC(=N)N)NC(=O)[C@@H](CCCNC(=N)N)NC(=O)[C@@H]1CCCN1C(=O)[C@H](Cc1ccc(O)cc1)NC(=O)[C@@H](NC(=O)[C@@H](N)CC(C)C)[C@@H](C)CC)C(=O)NC(CCCCNC(=O)C(CCCCNC(=O)[C@H](CCCNC(=N)N)NC(=O)[C@H](CCCNC(=N)N)NC(=O)[C@@H]1CCCN1C(=O)[C@H](Cc1ccc(O)cc1)NC(=O)[C@@H](NC(=O)[C@@H](N)CC(C)C)[C@@H](C)CC)NC(=O)[C@H](CCCNC(=N)N)NC(=O)[C@H](CCCNC(=N)N)NC(=O)[C@@H]1CCCN1C(=O)[C@H](Cc1ccc(O)cc1)NC(=O)[C@@H](NC(=O)[C@@H](N)CC(C)C)[C@@H](C)CC)C(=O)NCCC(=O)NC(CCCCNC(=O)CCOCCOCCNC(=O)CCCCC(=O)Oc1cc(/C=C\c2cc(OC)c(OC)c(OC)c2)ccc1OC)C(N)=O` (stereo partly drawn), the results for the IC50 in [9] and in assay [10] were 500 nM and 850 nM, respectively.
Take `COc1ccc(/C=C\c2cc(OC)c(OC)c(OC)c2)cc1OC(=O)C1=CC(C)(C)N(O)C1(C)C`: the results for the concentration for half-maximal inhibition (IC50) in assay [1] and in assay [2] were 160 nM and 3270 nM, respectively.
For the molecule `COc1ccc(/C=C\c2cc(OC)c(OC)c(OC)c2)cc1OC(=O)C1CC(C)(C)N(O)C(C)(C)C1`, the values for the IC50 in [1] and in assay [2] were 170 nM and 11200 nM, respectively.
For the molecule `CCN(CC)c1ccc2c(-c3ccccc3C(=O)OCC3CCN(/C=C/C(=O)Oc4cc(/C=C\c5cc(OC)c(OC)c(OC)c5)ccc4OC)CC3)c3ccc(=[N+](CC)CC)cc-3oc2c1.[Cl-]`, in assay [11], the Activity was 100%.
As to `COc1ccc(/C=C\c2cc(OC)c(OC)c(OC)c2)cc1OC(=O)N(C)CCOc1ccc(C(=C2CCC(C)CC2)c2ccc(O)cc2)cc1` (stereo not drawn), the half-maximal inhibitory concentration (IC50) in assay [12] turned out to be 5.7 nM; in assay [13], 115 nM; in [14], 15 nM.
In the case of `COc1ccc(/C=C\c2cc(OC)c(OC)c(OC)c2)cc1OC(=O)C1=CC(C)(C)N(O)C(C)(C)C1`, the values for the half-inhibitory concentration (IC50) in [1] and in [2] were 150 nM and 3580 nM, respectively.
In the case of `COc1ccc(/C=C\c2cc(OC)c(OC)c(OC)c2)cc1O` [COMBRETASTATIN A4], the IC50 in assay [3] was found to be 12.8 nM; in assay [1], 35 nM; in [15], 16 nM; in assay [5], 20.6 nM; in assay [6] it was 2.54 nM; in assay [2], 2390 nM. Besides, the concentration for half-maximal inhibition (IC50) came out at 400 nM in assay [7] and 3.3 nM in assay [8].
On to `O=c1[nH]cc(F)c(=O)[nH]1` [FLUOROURACIL], for which the IC50 in [6] is 34900 nM; in assay [7], 113 nM; in assay [8], 97000 nM.
In the case of `CCc1c2c(nc3ccc(OC(=O)N4CCC(N5CCCCC5)CC4)cc13)-c1cc3c(c(=O)n1C2)COC(=O)[C@]3(O)CC` [IRINOTECAN], the half-maximal inhibitory concentration (IC50) in assay [1] came to 2000 nM; in assay [2] it was 34100 nM.
